These molecules were tested on Phosphorylation of STAT6 in human PBMC (CD19+ B cells) (assay: Phosphorylated STAT6 (pSTAT6) flow cytometry assay in human PBMC, IL-4 stimulated). Details: compound 1 hour, 1 ng/ml IL-4 for 15 minutes, read-out: STAT6 IL4 pSTAT6 assay in PBMC: Average IC50.
Type: cell-based
Summary of the method: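 Human PBMC preincubated 1 h at 37 °C with compound (9-point 1:3 series, top up to 30 μM), then stimulated with 1 ng/ml IL-4 for 15 min. After fixation, methanol permeabilization and staining, pSTAT6 quantified in CD19+ B cells by flow cytometry; four-parameter fit of inhibition.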
`CN(C)C(=O)c1cc2cc(C3=CCCN(C(=O)CCn4ccnn4)C3)cnc2s1` [Example I-244] gave an IC50 of over 100 µM.
`CN(C)C(=O)c1cc2ccc(C3=CCCN(C(=O)C45CC(C(F)(F)F)(C4)C5)C3)cc2[nH]1` [Example I-55] gave an IC50 of 10 to 100 µM.
`COC(=O)CCC#Cc1cccc2c1CC(C(=O)N1CCC=C(c3ccc4oc(C(=O)N(C)C)cc4c3)C1)N(C=O)C2` (stereo not shown) [Example I-175] gave an IC50 of 1 to 10 µM.
`CN(C)C(=O)c1cc2cc(C3=CCCN(C(=O)CN4CCc5ccccc5C4)C3)ccc2o1` [Example I-296] was tested, and the IC50 was over 100 µM.
For `CN(C)C(=O)c1cc2ccc(C3=CCCN(C(=O)c4ccc(O)c(F)c4)C3)cc2[nH]1` [Example I-48], the IC50 was 10 to 100 µM.
In the case of `CN(C)C(=O)c1cc2cc(C3=CCCN(C(=O)CCc4ccc5ccccc5c4)C3)ccc2o1` [Example I-266], the IC50 is reported as over 100 µM.
For `CN(C)C(=O)c1cc2ccc(C3=CCCN(C(=O)CN4CCOC4=O)C3)cc2[nH]1` [Example I-42], the IC50 was 10 to 100 µM.
In the case of `CN(C)C(=O)c1nc2ccc(C3=CCCN(C(=O)CCn4ccnn4)C3)cc2o1` [Example I-226], the IC50 is reported as over 100 µM.
With `CCC(=O)N1Cc2ccccc2CC1C(=O)N1CCC=C(c2ccc3oc(C(=O)N(C)C)cc3c2)C1` (stereo not shown) [Example I-188] the IC50 was over 100 µM.
`CC(=O)NC(Cc1cccc(F)c1)C(=O)N1CCC=C(c2ccc3cc(C(=O)N(C)C)[nH]c3c2)C1` (stereo not shown) [Example I-82] was tested, and the IC50 was 10 to 100 µM.
`CN(C)C(=O)c1cc2cc(C3=CCCN(C(=O)Cc4c[nH]c5ncccc45)C3)ccc2o1` [Example I-309] gave an IC50 of over 100 µM.
`CC(=O)N1CCc2ccccc2[C@H]1C(=O)N1CCC=C(c2ccc3oc(C(=O)N(C)C)cc3c2)C1` (single isomer, unassigned) [Example I-176] was tested, and the IC50 was over 100 µM.
Work on `CN(C)C(=O)c1cc2ccc(C3=CCCN(C(=O)CCCn4ncc5nc(Cl)ccc54)C3)cc2[nH]1` [Example I-90] yielded an IC50 of 10 to 100 µM.
With `CN(C)C(=O)c1cc2ccc(C3=CCCN(C(=O)C4CC4c4ccn(C)n4)C3)cc2[nH]1` (stereo not shown) [Example I-321] the IC50 was 10 to 100 µM.
`CN(C)C(=O)c1cc2ccc(C3=CCCN(C(=O)C4CS(=O)(=O)C4)C3)cc2[nH]1` [Example I-163] was tested, and the IC50 was over 100 µM.
With `CN(C)C(=O)c1cc2cc(C3=CCCN(C(=O)Cc4nc5ccccc5o4)C3)ccc2o1` [Example I-292] the IC50 was over 100 µM.
`CN(C)C(=O)c1cc2ccc(C3=CCCN(C(=O)CCn4ccnn4)C3)cc2s1` [Example I-269] showed an IC50 of 10 to 100 µM.
With `Cc1ccccc1OCc1ccccc1C(=O)N1CCC=C(c2ccc3cc(C(=O)N(C)C)[nH]c3c2)C1` [Example I-106] the IC50 was 1 to 10 µM.
In the case of `CN(C)C(=O)c1cc2cc(C3=CCCN(C(=O)CCn4nnc5ccccc54)C3)ccc2o1` [Example I-217], the IC50 is reported as over 100 µM.
`CN(C)C(=O)c1cc2cc(C3=CCCN(C(=O)Cc4n[nH]c5ccccc45)C3)ccc2o1` [Example I-302] gave an IC50 of over 100 µM.
Work on `CN(C)C(=O)c1cc2ccc(C3=CCCN(C(=O)Cc4c[nH]nn4)C3)cc2[nH]1` [Example I-38] yielded an IC50 of over 100 µM.
`CN(C)C(=O)c1cc2ccc(C3=CCCN(C(=O)C4(C#N)CC4)C3)cc2[nH]1` [Example I-29] gave an IC50 of 10 to 100 µM.
Work on `CNC(=O)c1cc2cc(C3=CCCN(C(=O)CCn4ccnn4)C3)ccc2o1` [Example I-236] yielded an IC50 of over 100 µM.
`CN(C)C(=O)c1cc2cc(C3=CCCN(C(=O)CCc4nccc5ccccc45)C3)ccc2o1` [Example I-206] showed an IC50 of over 100 µM.
With `CN(C)C(=O)c1cc2ccc(C3=CCCN(C(=O)CC(C)(C)NCc4ccccc4)C3)cc2[nH]1` [Example I-135] the IC50 was over 100 µM.
`CN(C)C(=O)c1cc2cc(C3=CCCN(C(=O)CCc4cccc5ccccc45)C3)ccc2o1` [Example I-291] gave an IC50 of over 100 µM.
In the case of `CN(C)C(=O)c1cc2cc(C3=CCCN(C(=O)CCc4ccccc4)C3)ccc2o1` [Example I-312], the IC50 is reported as over 100 µM.
With `CN(C)C(=O)c1cc2ccc(C3=CCCN(C(=O)C(O)Cc4ccccc4)C3)cc2[nH]1` (stereo not shown) [Example I-52] the IC50 was 10 to 100 µM.
For `CN(C)C(=O)c1cc2cc(C3=CCCN(C(=O)Cc4ncccn4)C3)ccc2o1` [Example I-249], the IC50 was over 100 µM.
`CC1CCCN(C(=O)c2cc3ccc(C4=CCCN(C(=O)CCn5ccnn5)C4)cc3[nH]2)C1` (stereo not shown) [Example I-127] showed an IC50 of 10 to 100 µM.
Work on `O=C(CCn1ccnn1)N1CCC=C(c2ccc3cc(C(=O)N4CCC4)[nH]c3c2)C1` [Example I-125] yielded an IC50 of over 100 µM.
With `CN(C)C(=O)c1cc2ccc(C3=CCCN(C(=O)C4CC4F)C3)cc2[nH]1` (stereo not shown) [Example I-26] the IC50 was over 100 µM.
In the case of `CC1CCCN(C(=O)c2cc3ccc(C4=CCCN(C(=O)CCn5ccnn5)C4)cc3[nH]2)C1` (stereo not shown) [Example I-126], the IC50 is reported as over 100 µM.
Molecule `CN(C)C(=O)c1cc2ccc(C3=CCCN(C(=O)c4ccnnc4O)C3)cc2[nH]1` [Example I-146] has an IC50 of over 100 µM.
Molecule `CN(C)C(=O)c1cc2cc(C3=CCCN(C(=O)CCc4cn5ccccc5n4)C3)ccc2o1` [Example I-251] has an IC50 of over 100 µM.
Work on `CN(C)C(=O)c1cc2ccc(C3=CCCN(C(=O)CCn4nncc4CO)C3)cc2[nH]1` [Example I-13] yielded an IC50 of 0.1 to 1 µM.
For `CN(C)C(=O)c1cc2cc(C3=CCCN(C(=O)CCc4nncc5ccccc45)C3)ccc2o1` [Example I-168], the IC50 was over 100 µM.
In the case of `CN(C)C(=O)c1cc2cc(C3=CCCN(C(=O)Cc4nc5ccccc5[nH]4)C3)ccc2o1` [Example I-245], the IC50 is reported as over 100 µM.
In the case of `CN(C)C(=O)c1cc2ccc(C3=CCCN(C(=O)C4CCN(c5ncccc5C(=O)O)CC4)C3)cc2[nH]1` [Example I-109], the IC50 is reported as 10 to 100 µM.
`CN(C)C(=O)c1cc2ccc(C3=CCCN(C(=O)C4CC4F)C3)cc2[nH]1` (stereo not shown) [Example I-322] showed an IC50 of 10 to 100 µM.
`CN(C)C(=O)c1cc2cc(C3=CCCN(C(=O)C4Cc5c(cccc5OCCN)CN4C=O)C3)ccc2o1` (stereo not shown) [Example I-171] showed an IC50 of 10 to 100 µM.
Molecule `CN(C)C(=O)c1cc2cc(C3=CCCN(C(=O)Cn4ccnc4)C3)ccc2o1` [Example I-311] has an IC50 of over 100 µM.
`CN(C)C(=O)c1cc2cc(C3=CCCN(C(=O)Cc4ccncc4)C3)ccc2o1` [Example I-279] showed an IC50 of over 100 µM.
`CN(C)C(=O)c1cc2ccc(C3=CCCN(C(=O)C4(O)CCN(Cc5ccccc5)CC4)C3)cc2[nH]1` [Example I-98] was tested, and the IC50 was 10 to 100 µM.
`CN(C)C(=O)c1cc2cc(C3=CCCN(C(=O)CCn4ccnn4)C3)ccc2s1` [Example I-243] was tested, and the IC50 was over 100 µM.
`CN(C)C(=O)c1cc2c(-c3ccc(O)cc3)cc(C3=CCCN(C(=O)CCn4ccnn4)C3)cc2[nH]1` [Example I-22] was tested, and the IC50 was 0.1 to 1 µM.
`CN(C)C(=O)c1cc2cc(C3=CCCN(C(=O)CCn4ccc5ccccc54)C3)ccc2o1` [Example I-264] gave an IC50 of over 100 µM.
With `CN(C)C(=O)c1nc2ccc(C3=CCCN(C(=O)CCn4ccnn4)C3)cc2s1` [Example I-227] the IC50 was 10 to 100 µM.
With `CN(C)C(=O)c1cc2cc(C3=CCCN(C(=O)CCn4ccnn4)C3)cnc2[nH]1` [Example I-222] the IC50 was 10 to 100 µM.
With `COC(=O)C1CCC(c2ccc3oc(C(=O)N(C)C)cc3c2)CN1C(=O)CCn1ccnn1` (mixture of isomers) [Example I-2] the IC50 was over 100 µM.
In the case of `CN(C)C(=O)c1cc2ccc(C3=CCCN(C(=O)C4CC(=O)N4)C3)cc2[nH]1` (stereo not shown) [Example I-30], the IC50 is reported as 10 to 100 µM.
`CN(C)C(=O)c1cc2cc(C3=CCCN(C(=O)CCc4nc5ccccc5[nH]4)C3)ccc2o1` [Example I-267] was tested, and the IC50 was over 100 µM.

Source: patent US20250214977A1, “STAT6 INHIBITORS AND USES THEREOF” (Kymera Therapeutics, Inc., priority 2024, published 2025)
